Experimental data published in ChEMBL document CHEMBL1201862, “PubChem BioAssay data set” (2004).
Activity calls are given as the source filed them.

Key:
[1] = biological target: T1, Corticotropin-releasing factor receptor 2/Corticotropin-releasing factor-binding protein (Homo sapiens, UniProt P24387+Q13324); experiment: Dose Response confirmation of uHTS hits for small molecule antagonists of the CRF-binding protein and CRF-R2 receptor complex.; assay type: functional; conditions: read-out: IC50_Mean
T1 sequence (Q13324 whole entry): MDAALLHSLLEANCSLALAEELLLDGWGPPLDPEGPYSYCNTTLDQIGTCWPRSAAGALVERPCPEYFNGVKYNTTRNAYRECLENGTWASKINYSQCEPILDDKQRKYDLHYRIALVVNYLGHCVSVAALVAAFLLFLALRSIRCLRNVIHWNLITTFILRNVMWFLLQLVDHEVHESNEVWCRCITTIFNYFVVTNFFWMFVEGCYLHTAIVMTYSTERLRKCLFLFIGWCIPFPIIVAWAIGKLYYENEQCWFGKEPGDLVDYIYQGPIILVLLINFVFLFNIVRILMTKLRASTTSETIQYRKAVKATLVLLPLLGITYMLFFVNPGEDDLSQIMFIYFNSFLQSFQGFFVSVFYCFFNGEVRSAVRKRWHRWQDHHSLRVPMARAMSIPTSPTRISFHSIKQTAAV
T1 sequence (P24387 whole entry): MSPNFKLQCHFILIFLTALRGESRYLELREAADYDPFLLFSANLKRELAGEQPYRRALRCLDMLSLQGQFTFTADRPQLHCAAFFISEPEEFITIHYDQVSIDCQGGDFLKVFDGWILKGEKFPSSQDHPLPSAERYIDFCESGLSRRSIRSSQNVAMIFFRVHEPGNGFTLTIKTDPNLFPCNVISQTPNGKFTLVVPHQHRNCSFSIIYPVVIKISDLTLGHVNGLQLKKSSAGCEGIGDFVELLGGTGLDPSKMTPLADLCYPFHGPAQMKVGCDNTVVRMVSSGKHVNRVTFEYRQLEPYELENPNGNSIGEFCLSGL

[2] = CRF-BP/CRF-R2 complex antagonists, dose response, cell-based, uHTS hits, 384-well (AID 651639); assay type: functional, Homo sapiens; conditions: read-out: IC50_Mean
[3] = biological target: T1, Corticotropin-releasing factor receptor 2/Corticotropin-releasing factor-binding protein; experiment: activators of CRF receptor 2 with binding protein – uHTS hits, confirmation (AID 602473); assay type: functional; conditions: read-out: EC50_Mean
Protein Wnt-3a = Protein Wnt-3a (Mus musculus, UniProt P27467); experiment: Wnt3a-driven reporter signaling inhibition, dose response, selectivity assay for Gli-SUFU antagonist project, Wnt-LIGHT cells, luminescence (AID 651570); assay type: functional; conditions: read-out: IC50_Mean;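 note: Wnt-LIGHT reporter cells stimulated with conditioned medium from Wnt3a-producing cells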
INS1 = experiment: beta cell apoptosis inhibitors, cytokine rescue, dose response, luminescence, retest (AID 449756); assay type: functional, cell-based; conditions: Rattus norvegicus;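 note: cell death triggered by IL-1 beta plus TNF-alpha plus IFN-gamma mixture; protective hits raise ATP signal compared with cytokine alone wells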
Beta-galactosidase = Beta-galactosidase (Escherichia coli, UniProt Q8VNN2); experiment: Dose response counterscreen for EBI2 assay utilizing the enzyme, b-galactosidase.; assay type: functional
Albumin = Albumin (Bos taurus, UniProt P02769); experiment: Counterscreen for inhibitors of T-cell receptor (TCR)-CD3 interaction: Fluorescence-based biochemical high throughput dose response assay to identify inhibitors of T-cell receptor (TCR)-CD3 interaction using a TAMRA-labeled BSA probe.; assay type: functional
[4] = biological target: T2, Trace amine-associated receptor 1 (Homo sapiens, UniProt Q96RJ0); experiment: Fluorescence-based cell-based high throughput dose response assay to identify agonists of the human trace amine associated receptor 1 (TAAR1).; assay type: functional
T2 sequence (Q96RJ0 whole entry): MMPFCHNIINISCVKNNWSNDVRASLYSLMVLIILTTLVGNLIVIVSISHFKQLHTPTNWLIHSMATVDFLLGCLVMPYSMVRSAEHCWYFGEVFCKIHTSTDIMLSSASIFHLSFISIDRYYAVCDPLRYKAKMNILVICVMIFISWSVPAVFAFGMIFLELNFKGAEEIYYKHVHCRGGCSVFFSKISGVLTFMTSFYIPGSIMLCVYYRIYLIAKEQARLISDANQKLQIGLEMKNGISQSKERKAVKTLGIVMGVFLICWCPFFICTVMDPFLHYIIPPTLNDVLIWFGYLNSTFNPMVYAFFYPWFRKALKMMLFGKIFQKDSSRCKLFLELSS

cells [5] = assay type: functional, cell-based
[6] = biological target: T2, Trace amine-associated receptor 1; experiment: Counterscreen for agonists of the human trace amine associated receptor 1 (hTAAR1): Fluorescence-based cell-based high throughput dose response assay to identify hTAAR1 agonist that also desensitize TAAR1 receptor response.; assay type: functional
cells [7] = assay type: functional, cell-based; remark: listed apart in the source
[8] = biological target: T3, Calpain-2 catalytic subunit (Sus scrofa, UniProt P43367); experiment: pig calpain II inhibitor potency, dose response, biochemical, fluorogenic peptide substrate (AID 1420); assay type: functional
T3 sequence (P43367 whole entry): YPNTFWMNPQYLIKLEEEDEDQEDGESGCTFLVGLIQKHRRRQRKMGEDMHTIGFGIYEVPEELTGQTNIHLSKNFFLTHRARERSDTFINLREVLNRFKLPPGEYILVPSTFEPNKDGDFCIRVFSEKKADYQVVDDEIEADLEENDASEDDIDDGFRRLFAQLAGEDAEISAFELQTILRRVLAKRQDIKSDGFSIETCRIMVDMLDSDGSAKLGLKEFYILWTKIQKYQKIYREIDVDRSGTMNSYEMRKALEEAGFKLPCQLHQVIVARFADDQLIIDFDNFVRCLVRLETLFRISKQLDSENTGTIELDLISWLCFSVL

[9] = Shn3 3'UTR reporter inhibitors, dose response, cell-based, Clone20 osteoblasts, firefly luciferase, cherry-picked (AID 624132); assay type: functional;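 note: firefly luciferase luminescence from reporter carrying the Shn3 3'UTR in osteoblasts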
Large T antigen = Large T antigen (Simian virus 40, UniProt P03070); assay type: functional, Betapolyomavirus macacae;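 note: Confirmatory-stage PubChem screen for compounds that inhibit SV40 T antigen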
[10] = control 3'UTR Renilla luciferase suppression, dose response, counter-screen for Shn3 inhibitor project, cell-based, Clone20-Shn3RL, cherry-picked (AID 624133); assay type: functional
[11] = biological target: FAD-linked sulfhydryl oxidase ALR (Homo sapiens, UniProt P55789); experiment: inhibitors of human ALR sulfhydryl oxidase, dose response, biochemical, H2O2 detection, luminescence, cherry-pick (AID 493248)
[12] = HepG2 cell cytotoxicity, dose response, cytotoxicity control for Shn3 inhibitor project, CellTiter-Glo, cherry-picked (AID 624134); assay type: functional, cell-based
[13] = biological target: T4, Methionyl-tRNA synthetase, putative (Trypanosoma brucei brucei, UniProt Q38C91); assay type: functional, Trypanosoma brucei brucei strain 927/4 GUTat10.1;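 note: Read-out by fluorescence polarization, run as a confirmatory high-throughput counterscreen; potency of MetRS inhibitors measured by reduced AMP formation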
T4 sequence (Q38C91 whole entry): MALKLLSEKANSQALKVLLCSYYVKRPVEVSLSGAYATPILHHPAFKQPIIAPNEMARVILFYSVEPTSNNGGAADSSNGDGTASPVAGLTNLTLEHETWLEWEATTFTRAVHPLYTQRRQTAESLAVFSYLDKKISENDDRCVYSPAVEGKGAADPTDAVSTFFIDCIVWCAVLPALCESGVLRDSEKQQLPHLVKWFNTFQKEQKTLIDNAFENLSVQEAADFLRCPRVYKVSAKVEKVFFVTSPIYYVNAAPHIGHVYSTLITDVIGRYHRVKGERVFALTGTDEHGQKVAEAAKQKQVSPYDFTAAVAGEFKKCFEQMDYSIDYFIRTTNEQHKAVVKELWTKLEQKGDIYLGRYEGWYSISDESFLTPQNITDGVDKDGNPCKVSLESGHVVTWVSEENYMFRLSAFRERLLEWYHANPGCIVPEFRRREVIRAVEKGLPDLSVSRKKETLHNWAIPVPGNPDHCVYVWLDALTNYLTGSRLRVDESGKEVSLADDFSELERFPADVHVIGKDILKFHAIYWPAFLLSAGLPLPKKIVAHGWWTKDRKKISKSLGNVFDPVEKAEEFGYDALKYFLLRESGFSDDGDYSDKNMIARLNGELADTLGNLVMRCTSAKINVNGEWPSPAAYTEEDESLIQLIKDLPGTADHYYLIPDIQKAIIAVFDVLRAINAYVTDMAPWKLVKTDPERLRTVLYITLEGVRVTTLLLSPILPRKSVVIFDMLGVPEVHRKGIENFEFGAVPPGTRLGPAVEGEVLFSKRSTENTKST

[14] = Counterscreen for inhibitors of Trypanosoma brucei methionyl tRNA synthetase (MetRS): Luminescence-based cell-based high throughput dose response assay to identify compounds that are cytotoxic to Jurkat human T lymphocyte cells.; assay type: functional

Protein Wnt-3a, sequence (P27467 whole entry): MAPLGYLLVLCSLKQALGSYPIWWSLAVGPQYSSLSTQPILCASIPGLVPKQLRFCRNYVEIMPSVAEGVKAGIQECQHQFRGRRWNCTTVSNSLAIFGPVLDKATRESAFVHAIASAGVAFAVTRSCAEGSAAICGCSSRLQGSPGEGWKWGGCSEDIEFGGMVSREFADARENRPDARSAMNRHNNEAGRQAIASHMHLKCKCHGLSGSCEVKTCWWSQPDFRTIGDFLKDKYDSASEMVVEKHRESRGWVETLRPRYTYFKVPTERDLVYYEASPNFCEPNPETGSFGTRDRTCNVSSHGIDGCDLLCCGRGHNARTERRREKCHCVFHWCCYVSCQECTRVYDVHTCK
Beta-galactosidase, sequence (Q8VNN2 whole entry): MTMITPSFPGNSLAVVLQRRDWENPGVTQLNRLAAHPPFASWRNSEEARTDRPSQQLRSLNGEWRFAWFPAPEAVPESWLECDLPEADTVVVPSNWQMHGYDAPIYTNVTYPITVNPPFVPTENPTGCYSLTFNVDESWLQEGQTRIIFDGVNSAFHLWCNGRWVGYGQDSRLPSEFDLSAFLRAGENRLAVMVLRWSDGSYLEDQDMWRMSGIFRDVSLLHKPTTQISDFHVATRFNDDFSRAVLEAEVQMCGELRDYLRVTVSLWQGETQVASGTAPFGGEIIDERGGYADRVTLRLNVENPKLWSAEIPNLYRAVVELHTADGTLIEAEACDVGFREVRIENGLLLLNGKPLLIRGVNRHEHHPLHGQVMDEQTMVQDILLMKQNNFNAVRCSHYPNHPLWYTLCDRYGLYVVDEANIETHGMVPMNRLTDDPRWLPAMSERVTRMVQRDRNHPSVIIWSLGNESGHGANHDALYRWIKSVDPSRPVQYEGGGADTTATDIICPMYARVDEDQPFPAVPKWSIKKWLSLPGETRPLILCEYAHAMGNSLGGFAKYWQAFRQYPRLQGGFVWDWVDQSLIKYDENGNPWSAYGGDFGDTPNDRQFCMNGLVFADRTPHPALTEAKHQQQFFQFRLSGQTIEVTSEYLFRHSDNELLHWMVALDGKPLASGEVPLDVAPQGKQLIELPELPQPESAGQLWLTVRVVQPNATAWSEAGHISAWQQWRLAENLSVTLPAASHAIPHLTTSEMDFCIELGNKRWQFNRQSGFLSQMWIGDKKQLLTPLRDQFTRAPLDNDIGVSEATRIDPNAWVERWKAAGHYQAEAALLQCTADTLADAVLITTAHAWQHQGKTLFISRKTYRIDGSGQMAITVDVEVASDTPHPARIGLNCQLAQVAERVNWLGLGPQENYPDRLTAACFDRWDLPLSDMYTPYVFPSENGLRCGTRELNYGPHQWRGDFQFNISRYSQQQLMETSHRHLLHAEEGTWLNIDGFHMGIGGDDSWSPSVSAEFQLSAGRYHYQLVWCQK
Large T antigen, sequence (P03070 whole entry): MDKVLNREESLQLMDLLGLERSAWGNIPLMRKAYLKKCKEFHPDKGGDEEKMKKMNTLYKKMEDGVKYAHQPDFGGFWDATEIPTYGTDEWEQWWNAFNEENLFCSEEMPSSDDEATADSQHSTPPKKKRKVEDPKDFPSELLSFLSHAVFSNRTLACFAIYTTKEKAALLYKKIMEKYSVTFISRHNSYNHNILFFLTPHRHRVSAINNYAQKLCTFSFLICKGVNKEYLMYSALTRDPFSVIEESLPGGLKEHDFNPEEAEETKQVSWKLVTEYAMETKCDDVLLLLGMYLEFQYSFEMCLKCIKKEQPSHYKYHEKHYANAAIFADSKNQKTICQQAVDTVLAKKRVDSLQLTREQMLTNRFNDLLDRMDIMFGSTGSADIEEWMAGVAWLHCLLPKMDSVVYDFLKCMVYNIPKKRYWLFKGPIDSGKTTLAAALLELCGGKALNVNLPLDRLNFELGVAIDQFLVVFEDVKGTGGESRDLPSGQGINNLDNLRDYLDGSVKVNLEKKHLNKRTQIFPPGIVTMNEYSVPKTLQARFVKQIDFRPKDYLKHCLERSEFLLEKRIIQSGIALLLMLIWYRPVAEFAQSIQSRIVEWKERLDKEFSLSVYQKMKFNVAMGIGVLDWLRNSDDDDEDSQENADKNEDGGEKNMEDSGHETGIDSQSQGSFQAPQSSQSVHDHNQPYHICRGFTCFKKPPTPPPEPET
FAD-linked sulfhydryl oxidase ALR, sequence (P55789 whole entry): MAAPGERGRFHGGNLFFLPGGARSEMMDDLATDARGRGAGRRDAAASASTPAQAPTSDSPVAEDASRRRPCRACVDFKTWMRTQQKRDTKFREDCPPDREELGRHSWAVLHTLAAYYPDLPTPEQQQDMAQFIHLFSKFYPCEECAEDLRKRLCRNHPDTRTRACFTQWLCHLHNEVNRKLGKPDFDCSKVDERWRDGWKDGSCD
Albumin, sequence (P02769 whole entry): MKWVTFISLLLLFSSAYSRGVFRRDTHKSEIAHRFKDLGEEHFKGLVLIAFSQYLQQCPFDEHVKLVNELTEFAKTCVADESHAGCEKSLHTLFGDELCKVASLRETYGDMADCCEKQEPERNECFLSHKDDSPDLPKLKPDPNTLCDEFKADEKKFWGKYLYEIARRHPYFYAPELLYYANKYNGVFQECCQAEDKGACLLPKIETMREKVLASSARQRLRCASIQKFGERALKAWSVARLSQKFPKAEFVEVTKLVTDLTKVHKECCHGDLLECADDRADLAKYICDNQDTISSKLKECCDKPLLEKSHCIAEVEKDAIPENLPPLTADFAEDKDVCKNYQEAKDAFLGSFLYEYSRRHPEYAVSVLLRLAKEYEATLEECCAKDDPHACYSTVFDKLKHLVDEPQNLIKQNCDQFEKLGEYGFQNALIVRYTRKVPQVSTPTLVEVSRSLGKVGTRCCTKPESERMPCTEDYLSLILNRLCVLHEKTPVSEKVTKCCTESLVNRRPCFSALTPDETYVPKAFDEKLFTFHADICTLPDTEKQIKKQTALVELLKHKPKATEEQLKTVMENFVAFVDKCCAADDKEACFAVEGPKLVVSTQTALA

Question: For `Cc1c(CC(Cl)(Cl)Cl)c2c(n1O)CC(C)(C)CC2=O`, which IC50 [1] is on record?
Answer: 2.98 µM (active)

Question: What about the IC50 [2] of the same compound?
Answer: > 20 µM (inactive)

Question: And the EC50 [3]?
Answer: 15.9 µM (active)

Question: For `CCCCCn1c(=N)n(CC(O)COc2ccccc2OC)c2ccccc21` (stereo unspecified), which IC50 (Protein Wnt-3a) is on record?
Answer: 8.95 µM (active)

Question: Which IC50 [1] does the source give for `O=C(CC(c1ccccc1)c1ccccc1O)NCc1ccccc1Cl` (stereo unspecified) here?
Answer: 2.7 µM (active)

Question: What about the IC50 [2] of the same compound?
Answer: > 20 µM (inactive)

Question: What about the EC50 [3] of the same compound?
Answer: > 53 µM (inactive)

Question: Which AC50 (INS1) does the source give for `CCOc1ccc(OCc2ccc(C(=O)NN=Cc3ccc[nH]3)cc2)cc1` here?
Answer: 0.372 µM (active)

Question: What about the IC50 (Protein Wnt-3a) of the same compound?
Answer: 5.48 µM (active)

Question: Which results are given for `Cc1ccc(Cl)cc1N1CCN(C(=O)Cc2c(C(=O)O)[nH]c3ccccc23)CC1`?
Answer: IC50 [1]: 33.5 µM (active); IC50 [2]: > 20 µM (inactive); EC50 [3]: > 53 µM (inactive)

Question: For `O=C(Nc1ccc(Cl)cc1)N1CCC(c2ccccc2)C1` (stereo unspecified), which IC50 (Beta-galactosidase) is on record?
Answer: > 80 µM (inactive)

Question: For `CCc1ccccc1NC(=O)NNC(=O)c1ccc2ccccc2c1O`, which IC50 (Albumin) is on record?
Answer: > 94.1 µM (inactive)

Question: Which EC50 [4] does the source give for `NCCc1nc(-c2ccccc2)cs1` here?
Answer: 4.72 µM (active)

Question: What about the IC50 (cells [5]) of the same compound?
Answer: > 29.9 µM (inactive)

Question: And the IC50 [6]?
Answer: > 29.9 µM (inactive)

Question: And the EC50 (cells [7])?
Answer: > 29.9 µM (inactive)

Question: Which results are given for `CC(C)(C)NC(=O)NC(=O)CN1CCN(c2ccc(O)cc2)CC1`?
Answer: IC50 [8]: 19.1 µM (not active); AC50 [9]: 1.9 µM (active); IC50 (Large T antigen): 21.2 µM (active); AC50 [10]: 5.88 µM (active); AC50 [11]: 4.04 µM (active); AC50 [12]: 67.2 µM (active)

Question: With `O=C(Nc1ccccc1)Nc1ccc(S(=O)(=O)N2CCCCC2)cc1` as the compound, how does the IC50 [13] read?
Answer: 26.9 µM (inactive)

Question: What about the IC50 [14] of the same compound?
Answer: 47.5 µM (inactive)
